Source: patent US20240132464A1, “HETEROCYCLIC COMPOUNDS AS E3 LIGASE INHIBITORS” (Accutar Biotechnology Inc., priority 2022, published 2024)

target: T1, GID4 (Uniprot ID: Q81VV7, residues 124-289) (Homo sapiens, UniProt Q8IVV7); assay: GID4 competitive binding assay (AlphaScreen, GID4/degron peptide PGLW); conditions: 24 nM GID4, 48 nM biotinylated degron peptide PGLW, 4° C., read-out: IC50 (Inhibition of GID4/Degron binding by test compounds)
T1 construct: GID4 (Uniprot ID: Q81VV7, residues 124-289)
T1 sequence (Q8IVV7 124-289): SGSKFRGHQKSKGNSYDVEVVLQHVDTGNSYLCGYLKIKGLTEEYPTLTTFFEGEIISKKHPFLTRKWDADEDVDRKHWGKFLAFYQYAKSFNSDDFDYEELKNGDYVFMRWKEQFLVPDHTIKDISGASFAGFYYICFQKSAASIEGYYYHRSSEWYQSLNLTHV
Method in brief: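 His-tagged human GID4 (residues 124-289, 24 nM) pre-incubated 2 h at 4 °C with 48 nM biotinylated PGLW peptide and compound in HEPES pH 7.5 buffer, 2% DMSO (final). AlphaScreen streptavidin donor/Ni-NTA acceptor beads added for 1 h; IC50 from nonlinear fit of % inhibition versus DMSO.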

IC50, > 5 µM:
Brc1ccccc1[C@H]1CN(c2ccnc3[nH]cnc23)CCN1 (racemic) [Compound 34, (S/R)-7-(3-(2-bromophenyl)piperazin-1-yl)-3H-imidazo[4,5-b]pyridine]
CN(C)CCNC(=O)c1c2cc(-c3ccc4ccnc(N)c4c3)ccc2nn1C [Compound 360, 5-(1-aminoisoquinolin-7-yl)-N-(2-(dimethylamino)ethyl)-2-methyl-2H-indazole-3-carboxamide]
CC1CNCCN1c1cc(-c2ccnn2C)c2ccnc(-c3ccn[nH]3)c2n1 (stereo not drawn) [Compound 363, 4-(1-methyl-1H-pyrazol-5-yl)-2-(2-methylpiperazin-1-yl)-8-(1H-pyrazol-5-yl)-1,7-naphthyridine]
CC(C)Nc1nc(C(C)C)cc(N2CCNC(c3ccccc3Br)C2)n1 (single isomer, unassigned) [Compound 150, (S/R)-4-(3-(2-bromophenyl)piperazin-1-yl)-N,6-diisopropylpyrimidin-2-amine]
Nc1nc(N2CCCC(c3ccn[nH]3)C2)c2cnccc2n1 (stereo not drawn) [Compound 218, 4-(3-(1H-pyrazol-5-yl)piperidin-1-yl)pyrido[4,3-d]pyrimidin-2-amine]
Nc1cc(N2CCN(CCO)[C@@H](c3ccccc3Br)C2)nc(NC2CC2)n1 (stereo in doubt) [Compound 69, (S/R)-2-(4-(6-amino-2-(cyclopropylamino)pyrimidin-4-yl)-2-(2-bromophenyl)piperazin-1-yl)ethan-1-ol]
Cn1nccc1C1CCCN(c2nc(N)nc3c2CCC3)C1 (stereo not drawn) [Compound 215, 4-(3-(1 methyl-1H-pyrazol-5-yl)piperidin-1-yl)-6,7-dihydro-5H-cyclopenta[d]pyrimidin-2-amine]
Nc1cc(N2CCCC(c3ccn[nH]3)C2)nc(N)n1 (stereo not drawn) [Compound 193, 6-(3-(1H-pyrazol-5-yl)piperidin-1-yl)pyrimidine-2,4-diamine]
Nc1nccc2ccc(Cc3cccc(C(=O)N4CCCC4)c3)cc12 [Compound 343, (3-((1-aminoisoquinolin-7-yl)methyl)phenyl)(pyrrolidin-1-yl)methanone]

IC50, < 0.5 µM:
CN(C)CCNCc1n[nH]c2ccc(-c3ccc4ccnc(N)c4c3)cc12 [Compound 3, N1-((5-(1-aminoisoquinolin-7-yl)-1H-indazol-3-yl)methyl)-N2,N2-dimethylethane-1,2-diamine]
CC(C)c1cc(N2CCNC(c3cnc4ccccn34)C2)c2cc[nH]c2n1 (racemic) [Compound 371, (R/S)-3-(4-(6-isopropyl-1H-pyrrolo[2,3-b]pyridin-4-yl)piperazin-2-yl)imidazo[1,2-a]pyridine]
CN1CC(CNC(=O)c2n[nH]c3ccc(-c4ccc5ccnc(N)c5c4)cc23)C1 [Compound 334, 5-(1-aminoisoquinolin-7-yl)-N-((1-methylazetidin-3-yl)methyl)-1H-indazole-3-carboxamide]
CN1CCC(CNC(=O)c2ccc(-c3cc(O)c4ncccc4c3)cc2)C1 (stereo not drawn) [Compound 292, 4-(8-hydroxyquinolin-6-yl)-N-((1-methylpyrrolidin-3-yl)methyl)benzamide]
CC(C)c1nc(N2CCNC(c3cnc4ccccn34)C2)c2nc[nH]c2n1 (stereo not drawn) [Compound 373, 6-(3-(imidazo[1,2-a]pyridin-3-yl)piperazin-1-yl)-2-isopropyl-9H-purine]
CC(C)c1cc(N2CCNC(c3ccccc3Br)C2)nc(N)n1 (stereo not drawn) [Compound 183, 4-(3-(2-bromophenyl)piperazin-1-yl)-6-isopropylpyrimidin-2-amine]
CC(C)c1cc(N2CCNC(c3cc(C(=O)NCCN(C)C)ccc3Br)C2)nc(N)n1 (racemic) [Compound 21, R or S-3-(4-(2-amino-6-isopropylpyrimidin-4-yl)piperazin-2-yl)-4-bromo-N-(2-(dimethylamino)ethyl)benzamide]
CC(C)c1cc(N2CCNC(c3cc(O)ccc3Br)C2)nc(N)n1 (stereo not drawn) [Compound 163, 3-(4-(2-amino-6-isopropylpyrimidin-4-yl)piperazin-2-yl)-4-bromophenol]
CN(C)CCCNC(=O)c1ccc(-c2cc(O)c3ncccc3c2)cn1 [Compound 295, N-(3-(dimethylamino)propyl)-5-(8-hydroxyquinolin-6-yl)picolinamide]
CC(C)c1nc(N)cc(N2CCNC(c3ccccc3Br)C2)n1 (single isomer, unassigned) [Compound 76, (R/S)-6-(3-(2-bromophenyl)piperazin-1-yl)-2-isopropylpyrimidin-4-amine]
Cc1c(-c2ccc(Br)c([C@H]3CN(c4cc(N)nc(N)n4)CCN3)c2)cnn1C (racemic) [Compound 5, (S/R)-6-(3-(2-bromo-5-(1,5-dimethyl-1H-pyrazol-4-yl)phenyl)piperazin-1-yl)pyrimidine-2,4-diamine]
CN(C)CCNC(=O)c1ccc(-c2cc(O)c3ncncc3c2)cc1 [Compound 270, N-(2-(dimethylamino)ethyl)-4-(8-hydroxyquinazolin-6-yl)benzamide]
CC(C)c1nc(N2CCCC(c3cnc4ccccn34)C2)c2nc[nH]c2n1 (stereo not drawn) [Compound 376, 6-(3-(imidazo[1,2-a]pyridin-3-yl)piperidin-1-yl)-2-isopropyl-9H-purine]
Nc1cc(N2CCOC(c3ccccc3C(F)(F)F)C2)nc(N)n1 (stereo not drawn) [Compound 29, 6-(2-(2-(trifluoromethyl)phenyl)morpholino)pyrimidine-2,4-diamine]
CN1CC(NC(=O)c2ccc(-c3cc(O)c4ncccc4c3)cc2)C1 [Compound 291, 4-(8-hydroxyquinolin-6-yl)-N-(1-methylazetidin-3-yl)benzamide]
Nc1nccc2ccc(-c3ccc4[nH]nc(C(=O)NCCO)c4c3)cc12 [Compound 331, 5-(1-aminoisoquinolin-7-yl)-N-(2-hydroxyethyl)-1H-indazole-3-carboxamide]
Nc1nc(NCC2CC2)cc(N2CCN[C@@H](c3ccccc3Br)C2)n1 (racemic) [Compound 112, (S/R)-6-(3-(2-bromophenyl)piperazin-1-yl)-N4-(cyclopropylmethyl)pyrimidine-2,4-diamine]

IC50, 0.5 to 5 µM:
CC(C)c1cc(N2CCNC(c3cc(F)ccc3Br)C2)nc(N)n1 (stereo not drawn) [Compound 174, 4-(3-(2-bromo-5-fluorophenyl)piperazin-1-yl)-6-isopropylpyrimidin-2-amine]
Cc1c(-c2ccc(Br)c(C3CN(c4cc(N)nc(N)n4)CCN3)c2)cnn1C (single isomer, unassigned) [Compound 4, (R/S)-6-(3-(2-bromo-5-(1,5-dimethyl-1H-pyrazol-4-yl)phenyl)piperazin-1-yl)pyrimidine-2,4-diamine]
COC1CCN(C(=O)c2cccc(-c3ccc4ccnc(N)c4c3)c2)CC1 [Compound 346, (3-(1-aminoisoquinolin-7-yl)phenyl)(4-methoxypiperidin-1-yl)methanone]
CNc1nc(N)cc(N2CCCC(c3cnc4ccccn34)C2)n1 (racemic) [Compound 117, (S/R)-6-(3-(imidazo[1,2-a]pyridin-3-yl)piperidin-1-yl)-N2-methylpyrimidine-2,4-diamine]
CN1CCN(c2ccc(Br)c(C3CN(c4cc(N)nc(N)n4)CCN3)c2)CC1 (single isomer, unassigned) [Compound 51, R or S 6-(3-(2-bromo-5-(4-methylpiperazin-1-yl)phenyl)piperazin-1-yl)pyrimidine-2,4-diamine]
CC(C)c1cc(N2CCCC(c3cnc4c(F)cc(F)cn34)C2)nc(N)n1 (stereo not drawn) [Compound 242, 4-(3-(6,8-difluoroimidazo[1,2-a]pyridin-3-yl)piperidin-1-yl)-6-isopropylpyrimidin-2-amine]
Nc1cc(N2CCC=C(c3ncn4ccccc34)C2)nc(N)n1 [Compound 237, 6-(5-(imidazo[1,5-a]pyridin-1-yl)-3,6-dihydropyridin-1(2H)-yl)pyrimidine-2,4-diamine]
CN(C)CCNC(=O)c1n[nH]c2ccc(-c3ccc4ccnc(N)c4c3)nc12 [Compound 327, 5-(1-aminoisoquinolin-7-yl)-N-(2-(dimethylamino)ethyl)-1H-pyrazolo[4,3-b]pyridine-3-carboxamide]
Nc1cc(N2CCC(c3cnc4ccccn34)C2)nc(N)n1 (stereo not drawn) [Compound 255, 6-(3-(imidazo[1,2-a]pyridin-3-yl)pyrrolidin-1-yl)pyrimidine-2,4-diamine]
Nc1cc(N2CCNC(c3cnc4ccccn34)C2)nc(N)n1 (racemic) [Compound 120, (R/S)-6-(3-(imidazo[1,2-a]pyridin-3-yl)piperazin-1-yl)pyrimidine-2,4-diamine]
c1ccn2c(C3CCCN(c4ncnc5c4CCCN5)C3)cnc2c1 (stereo not drawn) [Compound 58, 4-(3-(imidazo[1,2-a]pyridin-3-yl)piperidin-1-yl)-5,6,7,8-tetrahydropyrido[2,3-d]pyrimidine]
CC(=O)N1CCN(c2cc(N)nc(NC3CC3)n2)CC1c1ccccc1Br (stereo not drawn) [Compound 52, 1-(4-(6-amino-2-(cyclopropylamino)pyrimidin-4-yl)-2-(2-bromophenyl)piperazin-1-yl)ethan-1-one]
CC(C)c1cc(N2CCC=C(c3ncn4ccccc34)C2)nc(N)n1 [Compound 238, 4-(5-(imidazo[1,5-a]pyridin-1-yl)-3,6-dihydropyridin-1(2H)-yl)-6-isopropylpyrimidin-2-amine]
